Test results from US9061984B2 (University of Louisville Research Foundation, Inc., priority 2008, dated 2015).
Converted amounts (≈) assume the structure as drawn. Read-outs that look alike come from different tables or passages of the source.

Assays:
[1] = system: axenic amastigotes of L. amazonensis (strain MHOM/BR/76/LTB-012); assay: microbe, parasite or virus in culture; conditions: Leishmania amazonensis
[2] = system: Trypanosoma cruzi (Tulahuen C4); assay: In vitro anti-T. cruzi activity (β-galactosidase CPRG colorimetric assay in VERO monolayer); format: cell-based; conditions: for Selectivity Index Lab B: IC50, VERO/IC50, T. cruzi; for inhibition at 10 µg/mL / IC50: Trypanosoma cruzi, TULAHUEN, Vero; for inhibition at 10 µg/mL: 120 h, 10 μg/mL of each compound, 120 hours, read-out: T. cruzi Inhib. (%)
M-14 cells = assay: Cell growth inhibition bioassay (sulforhodamine B); format: cell-based, human; conditions: 48 h, SRB; for GI50: Homo sapiens, M14, read-out: GI50 in indicated cell line: M-14
Procedure, shortened: (§1)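 Cells were exposed to compound alongside matched solvent controls, then stained with sulforhodamine B. Percent growth inhibition was calculated from dye absorbance against the control.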

HT-29 cells = assay: Cell growth inhibition bioassay (sulforhodamine B); format: cell-based, human; conditions: 48 h, SRB; for GI50: Homo sapiens, HT-29, read-out: GI50 in indicated cell line: HT-29
Procedure, shortened: as §1

MCF-7 cells = assay: Cell growth inhibition bioassay (sulforhodamine B); format: cell-based, human; conditions: 48 h, SRB; for GI50: Homo sapiens, MCF7, read-out: GI50 in indicated cell line: MCF-7
Procedure, shortened: (§2)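 Human cancer cells (MCF-7 breast, DU145 and PC3 prostate, H460 large cell lung) were treated with compounds. Growth relative to solvent control was quantified by SRB protein stain.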

K562 cells = assay: Cell growth inhibition bioassay (sulforhodamine B); format: cell-based, human; conditions: 48 h, SRB; for GI50: Homo sapiens, K562, read-out: GI50 in indicated cell line: K562
Procedure, shortened: as §1

H460 cells = assay: Cell growth inhibition bioassay (sulforhodamine B); format: cell-based, human; conditions: 48 h, SRB; for GI50: Homo sapiens, NCI-H460, read-out: GI50 in indicated cell line: H460
Procedure, shortened: as §2

DU145 cells = assay: Cell growth inhibition bioassay (sulforhodamine B); format: cell-based, human; conditions: 48 h, SRB; for GI50: Homo sapiens, DU-145, read-out: GI50 in indicated cell line: DU145
Procedure, shortened: as §2

3T3 cells = assay: Cell growth inhibition bioassay (sulforhodamine B); format: cell-based, mouse; conditions: 48 h, SRB; for GI50: Mus musculus, NIH3T3, read-out: GI50 in indicated cell line: 3T3
Procedure, shortened: as §1

[3] = system: axenic amastigotes of L. amazonensis (strain MHOM/BR/76/LTB-012); conditions: Table 8b
VERO cells [4] = assay: Cell growth inhibition bioassay (sulforhodamine B); format: cell-based, African Green Monkey; conditions: 48 h, SRB; for GI50: Chlorocebus sabaeus, Vero, read-out: GI50 in indicated cell line: VERO
Procedure, shortened: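 Cytotoxicity is read by sulforhodamine B colorimetry following the Skehan protocol; values are growth inhibition relative to solvent-only wells.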

M. tuberculosis MDR = assay: Anti-tuberculosis bioassay (tetrazolium microplate MIC); format: cell-based; conditions: Mycobacterium tuberculosis, read-out: Mycobacterium MIC MDR
M. tuberculosis H37Rv [5] = assay: Conventional aerobic (MABA) culture assay, luminescence MIC; format: cell-based, Mycobacterium tuberculosis; conditions: aerobic, 7 days, H37Rv; for MIC: Mycobacterium tuberculosis, 168 h
[6] = Toxicity to peritoneal macrophages (Trypan Blue count); format: cell-based, BALB/C mouse; conditions: BALB/C, mouse
VERO cells [7] = assay: VERO cells IC50 (Table 5); format: cell-based, African green monkey; conditions: Chlorocebus sabaeus
[8] = Cytotoxicity on VERO cells (MTT), anti-T. cruzi study; conditions: African green monkey, VERO cells
M. tuberculosis H37Rv [9] = assay: Anti-tuberculosis bioassay (tetrazolium microplate MIC); format: cell-based; conditions: Mycobacterium tuberculosis, read-out: Mycobacterium MIC H37Rv, Table 5
PC3 cells = assay: Cell growth inhibition bioassay (sulforhodamine B); format: cell-based; conditions: Homo sapiens, PC-3; 48 h, SRB; read-out: GI50 in indicated cell line: PC3
Protocol: The cytotoxicity of compounds was assayed as follows. […] Appropriate solvent controls were tested for comparison. The percent inhibition of cell growth relative to the control was evaluated colorimetrically using a sulforhodamine B dye by comparison to the control. The calorimetric procedure followed that published in Skehan et al., J. Nat. Cancer Inst., […], pp. 1107-1112 (1990) and Boyd & Paull, Drug Dev. Res., Vol. 34, pp. 91-109 (1995). […] The cell lines are: 3T3 cells are BALB/3T3 clone A31 embryonic mouse fibroblast cells; H460 cells are human large cell lung cancer cells; DU145 cells are human prostate carcinoma cells; MCF-7 cells are human breast adenocarcinoma cells; M-14 cells are human melanoma cells; HT-29 cells are human colon adenocarcinoma cells; PC3 cells are human prostate adenocarcinoma cells; K562 cells are human chronic myelogenous leukemia cells; and VERO cells are African Green Monkey kidney epithelial cells.

L. braziliensis PER006 = assay: Activity against macrophages infected with Leishmania amastigotes; conditions: Leishmania braziliensis, Macrophage, read-out: IC50 L. braziliensis PER006
L. amazonensis = conditions: intralesional, compounds 5 mg/kg/day, Glucantime 33 mg Sb(v)/kg/day; for Mean lesion wt (mg) (±SD): BALB/c mice n=10; for % Variation of lesion wt / % reduction of parasite burden in the lesion: vs control
L. peruviana LCA08 = assay: Activity against macrophages infected with Leishmania amastigotes; conditions: Leishmania peruviana, Macrophage, read-out: IC50 L. peruviana LCA08
VERO cell = assay: Cytotoxicity VERO cell (Table 6); conditions: Table 6
[10] = system: non-replicating persistence Mycobacterium tuberculosis (NRP-TB); assay: Low oxygen recovery assay (LORA); format: cell-based; conditions: anaerobic 10 days, 28 hour recovery; value in brackets
peritoneal macrophages = assay: Toxicity to peritoneal macrophages (Trypan Blue count); format: cell-based, BALB/C mouse
VERO cells [11] = assay: Cytotoxicity on VERO cells (MTT), anti-T. cruzi study; conditions: Lab B
[12] = read-out: IC50 Cytotoxicity Against Amastigotes
[13] = Lab B, read-out: T. cruzi IC50 Lab B
[14] = Table 2, read-out: IC50 - T. cruzi
[15] = IC50 Cytotoxicity Against Macrophages
[16] = IC50 - VERO Cytotoxicity, Table 2

Compound	IC50 [1, 12] [µM]	IC50 ([1]; read-out: L. amazonensis IC50) [µM]	Selectivity Index Lab B ([2]; Lab B)	inhibition at 10 µg/mL [2] [%]	IC50 [2, 13] [µg/mL]	IC50 [2, 14] [µg/mL]	GI50 (M-14 cells)	GI50 (HT-29 cells)	GI50 (MCF-7 cells)	GI50 (K562 cells)	GI50 (H460 cells)	GI50 (DU145 cells)	GI50 (3T3 cells)	Selectivity Index [3]	GI50 (VERO cells [4]) [µg/mL]	MIC (M. tuberculosis MDR) [µg/mL]	MIC (M. tuberculosis H37Rv [5]) [µg/mL]	IC50 at 48 h ([6]; Cytotoxicity Macrophages IC50) [µM]	IC50 at 48 h [6, 15] [µM]	IC50 (VERO cells [7]) [µg/mL]	also measured
Fc1ccccc1/C=N\Nc1ncnc2sc3c(c12)CCCC3 [II-27]	3.2	1.1	1.7	78.9	3.5	4.37	> 93.8 µg/mL	> 93.8 µg/mL	24.5 µg/mL	26.5 µg/mL	> 93.8 µg/mL	> 93.8 µg/mL	> 93.8 µg/mL	3.1	> 93.8	3.12 (≈ 9.56 µM)	> 100	3.3	> 10	27.7 (≈ 84.9 µM)	IC50 ([8]; Cytotoxicity VERO Lab B, Lab B): 6 µg/mL (≈ 18.4 µM); IC50 [8, 16]: 7 µg/mL (≈ 21.4 µM); MIC (M. tuberculosis H37Rv [9]): 3.12 µg/mL (≈ 9.56 µM)
COc1ccc(CCC(=O)c2c(O)cc(OC)cc2OC)cc1 [Compound I-03, 1-(2-Hydroxy-4,6-dimethoxyphenyl)-3-(4-methoxyphenyl)-1-propanone]	–	–	–	–	–	–	> 197 µM	> 197 µM	> 197 µM	> 197 µM	> 197 µM	> 197 µM	> 197 µM	–	–	–	–	–	–	–	melting point: 107 °C; IC50 ([2]; Table 3, read-out: IC50 T. cruzi): > 100 µM; GI50 (PC3 cells): > 197 µM
Clc1ccc(/C=N\Nc2ncnc3sc4c(c23)CCCC4)cc1 [II-28]	3.3	0.6	1.6	74.7	4.5	6.5	> 62.5 µg/mL	5.2 µg/mL	2.9 µg/mL	2.3 µg/mL	4.4 µg/mL	5 µg/mL	6.4 µg/mL	85.2	3 (≈ 8.75 µM)	6.25 (≈ 18.2 µM)	> 100	48.8	> 10	> 80	IC50 ([2]; Lab A, read-out: T. cruzi IC50 Lab A): 1.6 µg/mL; IC50 (L. braziliensis PER006): 5.9 µg/mL (≈ 17.2 µM); Mean lesion size (mm) (L. amazonensis; after 4 weeks treatment): 3.6 mm; Mean parasite quantification (per 10^6) in lesion per mg (±SD) (L. amazonensis; after 4 weeks treatment): 0.92 (±0.32) amastigotes (×10^6)/mg; Mean lesion wt (mg) (±SD) (L. amazonensis; after 4 weeks treatment): 60.4 (±31.3) mg; % Variation of lesion wt (L. amazonensis; after 4 weeks treatment): 0%; % reduction of parasite burden in the lesion (L. amazonensis; after 4 weeks treatment): 46%; Mean lesion size (mm) (L. amazonensis; after 7 weeks treatment): 5.2 mm; Mean parasite quantification (per 10^6) in lesion per mg (±SD) (L. amazonensis; after 7 weeks treatment): 1.26 (±0.02) amastigotes (×10^6)/mg; Mean lesion wt (mg) (±SD) (L. amazonensis; after 7 weeks treatment): 169.1 (±15.3) mg; % Variation of lesion wt (L. amazonensis; after 7 weeks treatment): −90%; % reduction of parasite burden in the lesion (L. amazonensis; after 7 weeks treatment): 25%; IC50 (L. peruviana LCA08): > 10 µg/mL; IC50 ([8]; Cytotoxicity VERO Lab B, Lab B): 7 µg/mL (≈ 20.4 µM); IC50 [8, 16]: 27 µg/mL (≈ 78.8 µM); MIC (M. tuberculosis H37Rv [9]): 12.5 µg/mL (≈ 36.5 µM)
FC(F)(F)c1ccccc1C=NNc1ncnc2sc3c(c12)CCCC3 [II-25]	–	–	–	–	–	–	–	–	–	–	–	–	–	–	–	–	–	–	–	–	T. cruzi IC50 Lab A ([2]; Lab A): 0.5 µg/mL; T. cruzi IC50 Lab B ([2]; Lab B): 5.2 µg/mL; GI50 in indicated cell line: M-14 (M-14 cells): 2.5 µg/mL (≈ 6.64 µM); GI50 in indicated cell line: HT-29 (HT-29 cells): 1.7 µg/mL (≈ 4.52 µM); GI50 in indicated cell line: MCF-7 (MCF-7 cells): 1.8 µg/mL (≈ 4.78 µM); GI50 in indicated cell line: K562 (K562 cells): 0.6 µg/mL (≈ 1.59 µM); GI50 in indicated cell line: H460 (H460 cells): 2.0 µg/mL (≈ 5.31 µM); GI50 in indicated cell line: DU145 (DU145 cells): 1.3 µg/mL (≈ 3.45 µM); GI50 in indicated cell line: 3T3 (3T3 cells): 6.0 µg/mL (≈ 15.9 µM); Cytotoxicity VERO cell (VERO cell): 7.6 µg/mL; IC50 ([3]; read-out: L. amazonensis IC50): 0.4 µM; GI50 in indicated cell line: VERO (VERO cells [4]): 1.7 µg/mL (≈ 4.52 µM); MIC LORA [10]: 5.8 µg/mL (≈ 15.4 µM); MIC MABA (M. tuberculosis H37Rv [5]): 5.9 µg/mL (≈ 15.7 µM); IC50 (peritoneal macrophages): 1.2 µM; Cytotoxicity VERO Lab B (VERO cells [11]): 3.0
